{"source": "patent US20070142462A1", "about": "“Method of Treating Cancer” (The University of Utah, priority 2000, published 2007)", "assay_type_in_all_cases": "cell-based, human", "key": {"M1619 melanoma cells": {"test_system": "M1619 melanoma cells", "experiment": "MTT proliferation assay, M1619 melanoma", "protocol": "Measurement of Proliferation in Cell Cultures. Proliferation of cultured cells was quantitated using a previously reported calorimetric method based upon metabolic reduction of the soluble yellow tetrazolium dye 3-[4,5-dimethylthiazol]-2yl-2,5-diphenyl tetrazolium bromide (MTT) to its insoluble purple formazan by the action of mitochondrial succinyl dehydrogenase. […] This assay empirically distinguishes between dead and living cells. For proliferation studies, cells were seeded into 24-well uncoated plastic plates (Costar) at 15,000-50,000 cells per well and cultured with respective media and mitogens. After 24-96 hours, medium was removed, cells were washed twice with 1 ml of sterile Dulbecco's modified phosphate buffered saline without Ca^2+ or Mg^2+ (DPBS), the medium was replaced with 1 ml/well fresh medium containing 100 μg/ml MTT, and plates were incubated an additional hour. MTT-containing medium was removed, 0.5 ml dimethylsulfoxide (DMSO) was added to each well, and the absorbance of the solubilized purple formazan dye was measured at 540 nm. A total of 4-6 wells was studied at each treatment condition. Preliminary studies were performed with 50-200 μg/ml MTT incubated for 15 min to 3 hours to determine the optimum concentration and incubation time at which the rate of conversion was linear and proportional to the number of cells present.\n(§1) Cell Culture Treatments. The effect of antioxidant treatments on proliferation of malignant cell lines was studied in cultures stimulated with 10% FBS. Cell numbers were quantitated by the MTT assay 24-72 hours later. In some experiments, antioxidants were added immediately after cells were plated. In other experiments, cells were plated and allowed to grow for 24 hours before fresh media with antioxidants was added, and cell numbers were studied by the MTT assay 48 hours later.\nA. M1619 melanoma cells stimulated with 10% fetal bovine serum (FBS) were plated at a density of 50,000 cells per well and antioxidants were added to wells at the indicated concentrations (mM or U/ml). After 48 hours, proliferation was quantitated by assessing the cell number-dependent reduction of the soluble yellow tetrazolium dye 3-[4,5-dimethylthiazol]-2yl-2,5-diphenyl tetrazolium bromide (MTT) to its insoluble formazan, measured as the absorbance at 540 nm (A540). The antioxidants tested included no antioxidant (control, i.e., FBS alone), 1000 U/ml SOD, 20 mM NAC, 500 U/ml, 1000 U/ml, and 3000 U/ml of catalase, and boiled […] catalase.\nB. In a separate experiment, 2 μl/well of DMSO (served as control), 5 μM, 10 μM, and 25 μM Ebselen were tested on M1619 melanoma cells as described above, except that the cells were cultured for 72 hours before proliferation was measured.\nC. 3000 U/ml Catalase, 2 μl/well DMSO, 25 μM Ebselen, and 50 μM Ebselen were tested as described above except that the compounds were added 24 hours after M1619 cells were plated. After the addition of antioxidants, the cells were incubated for an additional 48 hours and cell proliferation was quantitated. […]"}, "M1619 cells": {"test_system": "M1619 cells", "experiment": "Apoptosis by TdT fluorescein end-labeling (FragEL)", "conditions": "3000 U/ml catalase for 24 hours; vs DNase-treated positive control", "protocol": "Measurement of Cytotoxicity and Apoptosis. To assess for cytotoxicity, near confluent cells cultured in 24 well plates were exposed to antioxidants or withdrawn from serum for 24 hours. Medium was removed, and replaced with Dulbecco=s phosphate buffered saline (DPBS) containing 0.1% trypan blue. […] To assess for apoptosis, cells grown on glass slides were treated with antioxidants for 24 hours. Apoptosis was studied by terminal deoxynucleotidyl transferase (TdT) dependent 3′BOH fluorescein end-labeling of DNA fragments, using a Fluorescein-FragEL™ DNA fragmentation detection kit (Oncogene Research Products, Cambridge, Mass.). DNase-treated fixed cells were used as a positive control.\nApoptosis was studied by terminal deoxynucleotidyl transferase (TdT) dependent 3′BOH fluorescein end-labeling of DNA fragments, using a Fluorescein-FragE™ DNA fragmentation detection kit (Oncogene Research Products)."}, "Melanoma M1585 cells": {"test_system": "Melanoma M1585 cells", "experiment": "MTT proliferation assay, M1585 melanoma", "conditions": "Catalase 3000 U/ml; 10% FBS; 48 hours; mean±SE vs control", "protocol": "Measurement of Proliferation in Cell Cultures. […] This assay empirically distinguishes between dead and living cells.\nas §1\nCells stimulated with 10% FBS were plated at a density of 50,000 cells per well. DMSO and antioxidants were added to cell wells at the indicated concentrations. […] Each value represents a mean of at least 4 experiments."}}}
{"substance": "Catalase", "values": [{"measurement": "Proliferation of M1619 melanoma cells (MTT, A540)", "setting": "M1619 melanoma cells; 10% FBS, agents added at plating, 48 hours (ebselen 72 hours)", "value": "reduced proliferation"}, {"measurement": "Proliferation of M1619 melanoma cells, agents added 24 hours after plating", "setting": "M1619 melanoma cells; catalase 3000 U/ml, Ebselen 25 and 50 μM, further 48 hours", "value": "antiproliferative"}, {"measurement": "Induction of apoptosis", "setting": "M1619 cells", "value": "did not induce apoptosis"}, {"measurement": "Percent Growth Inhibition", "setting": "Melanoma M1585 cells", "value": "80 ± 1"}]}
